Source: patent US12594276B2, “Inhibitors of human immunodeficiency virus replication” (ViiV Healthcare UK (No.5) Limited, priority 2024, dated 2026)
Read-outs that look alike come from different tables or passages of the source.

Experiments:
[1] = tested on: recombinant NL4-3 virus (nef section replaced with Renilla luciferase gene) in MT-2 cells; assay: HIV cell culture assay (antiviral activity, luciferase readout); format: cell-based; details: Renilla, NL43, MT-2 cells infected for 4-5 days with recombinant NL4-3 Renilla luciferase virus
Summary of the method: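 Antiviral EC50 derived from luciferase signal using the exponential median effect equation. Infection of MT-2 cells ran 4-5 days alongside serial dilutions of compound, with virus generated by proviral clone transfection of 293T cells.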

[2] = Compound cytotoxicity, XTT-based colorimetric assay; format: cell-based; details: human
Summary of the method: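 CC50 derived from XTT colorimetric signal measured on day 4 in MT2 cells that were not infected. All other steps followed the antiviral assay protocol.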

[3] = uninfected MT2 cells, day 4, XTT, read-out: CC50

SMILES	EC50 [1] [nM]	CC50 at 4 days [2, 3] [nM]	CC50 at 4 days [2] [nM]
COCCCn1nc(NS(C)(=O)=O)c2c(Cl)ccc(-n3c([C@H](Cc4cc(F)cc(F)c4)NC(=O)Cn4nc(C(F)F)c5c4C(F)(F)[C@@H]4C[C@H]54)nc4nc(C5CCC(F)(F)CC5)cc(CN5CC(OC)C5)c4c3=O)c21 (atropisomer, axis not shown; (P)) [Example 604, N-[(1S)-1-[(3P)-3-[4-chloro-3-methanesulfonamido-1-(3-methoxypropyl)-1H-indazol-7-yl]-7-(4,4-difluorocyclohexyl)-5-[(3-methoxyazetidin-1-yl)methyl]-4-oxo-3H,4H-pyrido[2,3-d]pyrimidin-2-yl]-2-(3,5-difluorophenyl)ethyl]-2-[(2S,4R)-9-(difluoromethyl)-5,5-difluoro-7,8-diazatricyclo[4.3.0.0^2,^4]nona-1(6),8-dien-7-yl]acetamide]	0.011	> 20	–
Cc1cc(C2(F)CCC(F)(F)CC2)nc2nc([C@H](Cc3cc(F)cc(F)c3)NC(=O)Cn3nc(C4CC4)c4c3C(F)(F)[C@@H]3C[C@H]43)n(-c3ccc(Cl)c4c(NS(C)(=O)=O)nn(CCN5C[C@H](F)C[C@H](F)C5)c34)c(=O)c12 (atropisomer, axis not shown; (P)) [Example 570, N-[(1S)-1-[(3P)-3-(4-chloro-1-{2-[(3R,5S)-3,5-difluoropiperidin-1-yl]ethyl}-3-methanesulfonamido-1H-indazol-7-yl)-5-methyl-4-oxo-7-(1,4,4-trifluorocyclohexyl)-3H,4H-pyrido[2,3-d]pyrimidin-2-yl]-2-(3,5-difluorophenyl)ethyl]-2-[(2S,4R)-9-cyclopropyl-5,5-difluoro-7,8-diazatricyclo[4.3.0.0^2,^4]nona-1(6),8-dien-7-yl]acetamide]	0.029	> 20	–
COCCNc1cc(C2CCC(F)(F)CC2)nc2nc([C@H](Cc3cc(F)cc(F)c3)NC(=O)Cn3nc(C(F)F)c4c3C(F)(F)[C@@H]3C[C@H]43)n(-c3ccc(Cl)c4c(NS(C)(=O)=O)nn(CCN5C[C@@H](F)[C@@H](F)C5)c34)c(=O)c12 (atropisomer, axis not shown; (P)) [Example 417, N-[(1S)-1-[(3P)-3-(4-chloro-1-{2-[(3R,4S)-3,4-difluoropyrrolidin-1-yl]ethyl}-3-methanesulfonamido-1H-indazol-7-yl)-7-(4,4-difluorocyclohexyl)-5-[(2-methoxyethyl)amino]-4-oxo-3H,4H-pyrido[2,3-d]pyrimidin-2-yl]-2-(3,5-difluorophenyl)ethyl]-2-[(2S,4R)-9-(difluoromethyl)-5,5-difluoro-7,8-diazatricyclo[4.3.0.0^2,^4]nona-1(6),8-dien-7-yl]acetamide]	0.007	> 20	–
Cc1cc(C2CCC(F)(F)CC2)nc2nc([C@H](Cc3cc(F)cc(F)c3)NC(=O)Cn3nc(C(F)F)c4c3C(F)(F)[C@@H]3C[C@H]43)n(-c3ccc(Cl)c4c(NS(C)(=O)=O)nn(CCN5C[C@H](F)C[C@H](F)C5)c34)c(=O)c12 (atropisomer, axis not shown; (P)) [Example 5, N-[(1S)-1-[(3P)-3-(4-chloro-1-{2-[(3R,5S)-3,5-difluoropiperidin-1-yl]ethyl}-3-methanesulfonamido-1H-indazol-7-yl)-7-(4,4-difluorocyclohexyl)-5-methyl-4-oxo-3H,4H-pyrido[2,3-d]pyrimidin-2-yl]-2-(3,5-difluorophenyl)ethyl]-2-[(2S,4R)-9-(difluoromethyl)-5,5-difluoro-7,8-diazatricyclo[4.3.0.0^2,4]nona-1(6),8-dien-7-yl]acetamide]	0.009	> 20000	–
Cc1cc(C2CCC(F)(F)CC2)nc2nc([C@H](Cc3cc(F)cc(F)c3)NC(=O)Cn3nc(C4CC4)c4c3C[C@@H]3C[C@H]43)n(-c3ccc(Cl)c4c(NS(C)(=O)=O)nn(CCN5C[C@H]6C[C@@H](C5)O6)c34)c(=O)c12 (atropisomer, axis not shown; (P)) [Example 7, N-[(1S)-1-[(3P)-3-(4-chloro-3-methanesulfonamido-1-{2-[(1R,5S)-6-oxa-3-azabicyclo[3.1.1]heptan-3-yl]ethyl}-1H-indazol-7-yl)-7-(4,4-difluorocyclohexyl)-5-methyl-4-oxo-3H,4H-pyrido[2,3-d]pyrimidin-2-yl]-2-(3,5-difluorophenyl)ethyl]-2-[(2S,4S)-9-cyclopropyl-7,8-diazatricyclo[4.3.0.0^2,^4]nona-1(6),8-dien-7-yl]acetamide]	0.009	–	> 50
CC(C)[C@H]1CN(CCn2nc(NS(C)(=O)=O)c3c(Cl)ccc(-n4c([C@H](Cc5cc(F)cc(F)c5)NC(=O)Cn5nc(C6CC6)c6c5C[C@@H]5C[C@H]65)nc5nc(C6CCC(F)(F)CC6)ccc5c4=O)c32)CCO1 (atropisomer, axis not shown; (P)) [Example 434, N-[(1S)-1-[(3P)-3-(4-chloro-3-methanesulfonamido-1-{2-[(2S)-2-(propan-2-yl)morpholin-4-yl]ethyl}-1H-indazol-7-yl)-7-(4,4-difluorocyclohexyl)-4-oxo-3H,4H-pyrido[2,3-d]pyrimidin-2-yl]-2-(3,5-difluorophenyl)ethyl]-2-[(2S,4S)-9-cyclopropyl-7,8-diazatricyclo[4.3.0.0^2,^4]nona-1(6),8-dien-7-yl]acetamide]	0.01	> 20	–
Cc1cc(C2CCC(F)(F)CC2)nc2nc([C@H](Cc3cc(F)cc(F)c3)NC(=O)Cn3nc(C(F)F)c4c3C(F)(F)[C@@H]3C[C@H]43)n(-c3ccc(Cl)c4c(NS(C)(=O)=O)nn(CCN5CCCC5)c34)c(=O)c12 (atropisomer, axis not shown; (P)) [Example 266, N-[(1S)-1-[(3P)-3-{4-chloro-3-methanesulfonamido-1-[2-(pyrrolidin-1-yl)ethyl]-1H-indazol-7-yl}-7-(4,4-difluorocyclohexyl)-5-methyl-4-oxo-3H,4H-pyrido[2,3-d]pyrimidin-2-yl]-2-(3,5-difluorophenyl)ethyl]-2-[(2S,4R)-9-(difluoromethyl)-5,5-difluoro-7,8-diazatricyclo[4.3.0.0^2,^4]nona-1(6),8-dien-7-yl]acetamide]	0.034	> 50	–
COCCCn1nc(NS(C)(=O)=O)c2c(Cl)ccc(-n3c([C@H](Cc4cc(F)cc(F)c4)NC(=O)Cn4nc(C(F)F)c5c4C(F)(F)[C@@H]4C[C@H]54)nc4nc(C5CCC(F)(F)CC5)cc(NCC(=O)N5CCCCC5)c4c3=O)c21 (atropisomer, axis not shown; (P)) [Example 566, N-[(1S)-1-[(3P)-3-[4-chloro-3-methanesulfonamido-1-(3-methoxypropyl)-1H-indazol-7-yl]-7-(4,4-difluorocyclohexyl)-4-oxo-5-{[2-oxo-2-(piperidin-1-yl)ethyl]amino}-3H,4H-pyrido[2,3-d]pyrimidin-2-yl]-2-(3,5-difluorophenyl)ethyl]-2-[(2S,4R)-9-(difluoromethyl)-5,5-difluoro-7,8-diazatricyclo[4.3.0.0^2,^4]nona-1(6),8-dien-7-yl]acetamide]	0.079	> 20	–
Cc1cc(C2(F)CCC(F)(F)CC2)nc2nc([C@H](Cc3cc(F)cc(F)c3)NC(=O)Cn3nc(C4CC4)c4c3C[C@@H]3C[C@H]43)n(-c3ccc(Cl)c4c(NS(C)(=O)=O)nn(CCN5[C@@H]6CC[C@H]5COC6)c34)c(=O)c12 (atropisomer, axis not shown; (P)) [Example 593, N-[(1S)-1-[(3P)-3-(4-chloro-3-methanesulfonamido-1-{2-[(1R,5S)-3-oxa-8-azabicyclo[3.2.1]octan-8-yl]ethyl}-1H-indazol-7-yl)-5-methyl-4-oxo-7-(1,4,4-trifluorocyclohexyl)-3H,4H-pyrido[2,3-d]pyrimidin-2-yl]-2-(3,5-difluorophenyl)ethyl]-2-[(2S,4S)-9-cyclopropyl-7,8-diazatricyclo[4.3.0.0^2,^4]nona-1(6),8-dien-7-yl]acetamide]	0.017	–	> 20
COCCCn1nc(NS(C)(=O)=O)c2c(Cl)ccc(-n3c([C@H](Cc4cc(F)cc(F)c4)NC(=O)Cn4nc(C(F)F)c5c4C(F)(F)[C@@H]4C[C@H]54)nc4nc(C5CCC(F)(F)CC5)cc(C5CC5)c4c3=O)c21 (atropisomer, axis not shown; (P)) [Example 375, N-[(1S)-1-[(3P)-3-[4-chloro-3-methanesulfonamido-1-(3-methoxypropyl)-1H-indazol-7-yl]-5-cyclopropyl-7-(4,4-difluorocyclohexyl)-4-oxo-3H,4H-pyrido[2,3-d]pyrimidin-2-yl]-2-(3,5-difluorophenyl)ethyl]-2-[(2S,4R)-9-(difluoromethyl)-5,5-difluoro-7,8-diazatricyclo[4.3.0.0^2,^4]nona-1(6),8-dien-7-yl]acetamide]	0.014	> 20	–
Cc1cc(C2(F)CCC(F)(F)CC2)nc2nc([C@H](Cc3cc(F)cc(F)c3)NC(=O)Cn3nc(C(F)F)c4c3C(F)(F)[C@@H]3C[C@H]43)n(-c3ccc(Cl)c4c(NS(C)(=O)=O)nn([C@H](C)CN5C[C@@H](C)O[C@@H](C)C5)c34)c(=O)c12 (atropisomer, axis not shown; (P)) [Example 729, N-[(1S)-1-[(3P)-3-{4-chloro-1-[(2R)-1-[(2R,6S)-2,6-dimethylmorpholin-4-yl]propan-2-yl]-3-methanesulfonamido-1H-indazol-7-yl}-5-methyl-4-oxo-7-(1,4,4-trifluorocyclohexyl)-3H,4H-pyrido[2,3-d]pyrimidin-2-yl]-2-(3,5-difluorophenyl)ethyl]-2-[(2S,4R)-9-(difluoromethyl)-5,5-difluoro-7,8-diazatricyclo[4.3.0.0^2,^4]nona-1(6),8-dien-7-yl]acetamide]	0.023	> 20	–
